Experiments:
Assay type in all cases: cell-based
Aspergillus fumigatus = experiment: Antifungal activity in vitro, resazurin growth inhibition: Aspergillus fumigatus (B42928)
Protocol: (§1) The standard susceptibility screen is performed in 96-well plates (U-bottom, Greiner Bio-One). Serial dilutions (2-fold or 4-fold) of 20 mM compound stock solutions are made in 100% DMSO, followed by an intermediate dilution step in water. These serial dilutions (10 μl) are then spotted onto test-plates that can be stored in the dark at 4° C. for a maximum period of 2 weeks. An adequate broad dose-range is included with 64 μM as the highest in-test concentration. The culture medium RPMI-1640 is supplemented with L-glutamine, 2% glucose and buffered with 3-(N-morpholino)-propanesulfonic acid (MOPS) at pH 7.0±0.1.
(§2) The different fungal species/isolates (Table 3a) are cryopreserved and 1/1000 diluted in medium just prior to use. A standard inoculum of 200 μl containing 10^3 colony-forming unit (cfu) is then added to each well. A positive control (100% growth=fungal culture without antifungal) and a negative control (0% growth ═RPMI-MOPS medium) are included on each plate. Optimal incubation time and temperature are dependent on the fungal species and vary from 24 h for yeasts (37° C.) to one week or more for dermatophytes (27° C.). Inhibition of fungal growth is measured after adding 10 μl of 0.005% (w/v) resazurin (Sigma Aldrich) to each well, based on the principle that living cells convert the non-fluorescent blue resazurin into the pink and fluorescent resorufin, allowing fluorimetric reading (λex 550 nm and λem 590 nm) after an additional incubation period (‘resa’ time mentioned in Table 3a).

[1] = system: Trichophyton mentagrophytes; experiment: Antifungal activity in vitro, resazurin growth inhibition: Trichophyton mentagrophytes (B70554)
Protocol: as §1, §2

Sporothrix schenkii = experiment: Antifungal activity in vitro, resazurin growth inhibition: Sporothrix schenkii (B62482)
Protocol: as §1, §2

Candida parapsilosis = experiment: Antifungal activity in vitro, resazurin growth inhibition: Candida parapsilosis (B66126)
Protocol: as §1, §2

Trichophyton rubrum = experiment: Antifungal activity in vitro, resazurin growth inhibition: Trichophyton rubrum (B68183)
Protocol: as §1, §2

Microsporum canis = experiment: Antifungal activity in vitro, resazurin growth inhibition: Microsporum canis (B68128)
Protocol: as §1, §2

Cryptococcus neoformans = experiment: Antifungal activity in vitro, resazurin growth inhibition: Cryptococcus neoformans (B66663)
Protocol: as §1, §2

| SMILES | Inf. E: Aspergillus fumigatus B42928, pIC50 (Aspergillus fumigatus) | Inf. G: Trichophyton mentagrophytes B70554, pIC50 [1] | Inf. A: Sporothrix schenkii B62482, pIC50 (Sporothrix schenkii) | Inf. D: Candida parapsilosis B66126, pIC50 (Candida parapsilosis) | Inf. C: Trichophyton rubrum B68183, pIC50 (Trichophyton rubrum) | Inf. B: Microsporum canis B68128, pIC50 (Microsporum canis) | Inf. F: Cryptococcus neoformans B66663, pIC50 (Cryptococcus neoformans) |
| --- | --- | --- | --- | --- | --- | --- | --- |
| Cc1ccc2cc(C3NCc4c(C)cccc4-n4cccc43)oc2c1.Cl (racemic) [Compound 40] | <4.19 | 4.47 | <4.19 | <4.19 | 4.77 | 5.52 | <4.19 |
| Cc1ccc2cc(C3NCc4c(Cl)cc(Cl)cc4-n4cccc43)oc2c1.Cl (racemic) [Compound 41] | <4.19 | <4.19 | <4.19 | <4.19 | 4.80 | <4.19 | <4.19 |
| COc1cccc2cc(C3NCc4ccc(Cl)cc4-n4cccc43)oc12.Cl (racemic) [Compound 42] | <4.19 | 4.49 | <4.19 | <4.19 | 5.06 | 4.19 | 4.89 |
| COc1cccc2cc(C3NCc4c(Cl)cc(Cl)cc4-n4cccc43)oc12.Cl (racemic) [Compound 43] | <4.19 | <4.19 | <4.19 | <4.19 | 4.30 | 4.52 | <4.19 |
| COc1ccc2oc(C3NCc4c(Cl)cccc4-n4cccc43)cc2c1.Cl (racemic) [Compound 44] | <4.19 | 4.77 | <4.19 | <4.19 | 5.20 | 5.31 | <4.19 |
| COc1ccc2oc(C3NCc4ccc(Cl)cc4-n4cccc43)cc2c1.Cl (racemic) [Compound 45] | <4.19 | <4.19 | 4.80 | <4.19 | 5.09 | 5.32 | 4.62 |
| COc1ccc2oc(C3NCc4c(Cl)cc(Cl)cc4-n4cccc43)cc2c1.Cl (racemic) [Compound 46] | <4.19 | <4.19 | <4.19 | <4.19 | <4.19 | 5.12 | <4.19 |
| Cl.Fc1ccc2oc(C3NCc4ccc(Cl)cc4-n4cccc43)cc2c1 (racemic) [Compound 48] | <4.19 | <4.19 | <4.19 | <4.19 | 5.39 | 4.30 | 4.84 |
| Cl.Fc1ccc2oc(C3NCc4c(Cl)cc(Cl)cc4-n4cccc43)cc2c1 (racemic) [Compound 49] | <4.19 | <4.19 | <4.80 | <4.19 | 5.28 | 4.82 | <4.19 |
| Cc1nc2ccc(C3NCc4c(Cl)cccc4-n4cccc43)cc2o1.Cl (racemic) [Compound 50] | <4.19 | <4.19 | <4.19 | <4.19 | 4.49 | 4.56 | <4.19 |
| Cl.Clc1cc2oc(C3NCc4c(Cl)cccc4-n4cccc43)cc2cn1 (racemic) [Compound 51] | <4.19 | 4.94 | <4.19 | <4.19 | 5.63 | 5.40 | 4.45 |
